Key:
ALDH1A3 = molecular target: T1, ALDH1A3 (Homo sapiens, UniProt P47895); details: read-out: IC50 ALDH1A3; 100 μM propionaldehyde, 200 μM NAD+, 1% DMSO, pH 7.5, 25 °C
T1 sequence (P47895 1-512): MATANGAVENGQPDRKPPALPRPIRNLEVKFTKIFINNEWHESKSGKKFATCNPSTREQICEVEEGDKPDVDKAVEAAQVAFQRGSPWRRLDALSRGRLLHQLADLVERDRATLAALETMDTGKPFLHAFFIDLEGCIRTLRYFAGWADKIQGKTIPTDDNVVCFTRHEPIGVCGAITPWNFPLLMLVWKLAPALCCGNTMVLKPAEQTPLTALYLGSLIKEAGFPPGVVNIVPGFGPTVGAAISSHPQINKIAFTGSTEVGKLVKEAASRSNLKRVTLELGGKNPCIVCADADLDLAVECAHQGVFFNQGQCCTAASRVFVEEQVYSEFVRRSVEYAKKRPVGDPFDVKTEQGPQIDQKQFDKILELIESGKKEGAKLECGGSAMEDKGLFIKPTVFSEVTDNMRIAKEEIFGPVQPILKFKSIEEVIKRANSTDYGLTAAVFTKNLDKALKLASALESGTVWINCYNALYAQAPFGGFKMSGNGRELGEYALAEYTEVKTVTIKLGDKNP

ALDH1A1 [1] = molecular target: T2, ALDH1A1 (Homo sapiens, UniProt P00352); test: ALDH1A1 dehydrogenase activity, NADH formation at 340 nm; assay type: biochemical; details: for inhibition at 10 µM: read-out: Inhibition of ALDH1A1 at 10 μM; for IC50: read-out: IC50 ALDH1A1, 100 μM propionaldehyde, 200 μM NAD+, 1% DMSO, pH 7.5, 25 °C
T2 sequence (P00352 1-501): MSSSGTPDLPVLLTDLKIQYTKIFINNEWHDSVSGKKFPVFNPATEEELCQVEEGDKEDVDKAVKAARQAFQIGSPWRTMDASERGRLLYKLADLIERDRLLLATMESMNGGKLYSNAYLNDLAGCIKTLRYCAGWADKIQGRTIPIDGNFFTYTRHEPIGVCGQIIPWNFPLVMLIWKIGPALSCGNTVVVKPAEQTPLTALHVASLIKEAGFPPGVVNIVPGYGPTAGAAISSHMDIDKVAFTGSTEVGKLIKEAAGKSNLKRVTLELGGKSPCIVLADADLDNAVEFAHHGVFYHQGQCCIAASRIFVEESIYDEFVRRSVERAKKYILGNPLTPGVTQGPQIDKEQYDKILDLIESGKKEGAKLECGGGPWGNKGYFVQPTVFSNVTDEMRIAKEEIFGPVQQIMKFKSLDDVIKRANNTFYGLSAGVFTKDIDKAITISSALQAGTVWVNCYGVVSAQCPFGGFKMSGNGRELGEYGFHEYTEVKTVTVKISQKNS

ALDH1B1 = molecular target: T3, ALDH1B1 (Homo sapiens, UniProt P30837); details: read-out: IC50 ALDH1B1; 200 μM propionaldehyde, 500 μM NAD+, 25 °C
T3 sequence (P30837 18-517): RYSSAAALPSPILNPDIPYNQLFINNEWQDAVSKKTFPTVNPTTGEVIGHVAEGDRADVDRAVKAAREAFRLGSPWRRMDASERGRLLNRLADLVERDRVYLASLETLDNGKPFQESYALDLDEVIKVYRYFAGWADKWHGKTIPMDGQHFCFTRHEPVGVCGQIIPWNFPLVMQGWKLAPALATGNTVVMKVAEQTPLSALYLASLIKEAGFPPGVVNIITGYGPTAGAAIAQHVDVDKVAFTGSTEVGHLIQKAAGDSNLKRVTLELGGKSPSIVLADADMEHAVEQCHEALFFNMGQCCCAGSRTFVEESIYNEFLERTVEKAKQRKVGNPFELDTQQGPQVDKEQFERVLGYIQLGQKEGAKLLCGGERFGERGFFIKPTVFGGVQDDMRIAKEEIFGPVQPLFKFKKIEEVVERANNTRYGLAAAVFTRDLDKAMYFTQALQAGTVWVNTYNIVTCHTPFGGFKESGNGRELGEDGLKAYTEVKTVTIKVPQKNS

ALDH3A1 = molecular target: T4, ALDH3A1 (Homo sapiens, UniProt P30838); test: ALDH3A1 dehydrogenase activity; assay type: biochemical; details: read-out: IC50 ALDH3A1; 300 μM benzaldehyde, 300 μM NADP+, pH 7.5
T4 sequence (P30838 1-453): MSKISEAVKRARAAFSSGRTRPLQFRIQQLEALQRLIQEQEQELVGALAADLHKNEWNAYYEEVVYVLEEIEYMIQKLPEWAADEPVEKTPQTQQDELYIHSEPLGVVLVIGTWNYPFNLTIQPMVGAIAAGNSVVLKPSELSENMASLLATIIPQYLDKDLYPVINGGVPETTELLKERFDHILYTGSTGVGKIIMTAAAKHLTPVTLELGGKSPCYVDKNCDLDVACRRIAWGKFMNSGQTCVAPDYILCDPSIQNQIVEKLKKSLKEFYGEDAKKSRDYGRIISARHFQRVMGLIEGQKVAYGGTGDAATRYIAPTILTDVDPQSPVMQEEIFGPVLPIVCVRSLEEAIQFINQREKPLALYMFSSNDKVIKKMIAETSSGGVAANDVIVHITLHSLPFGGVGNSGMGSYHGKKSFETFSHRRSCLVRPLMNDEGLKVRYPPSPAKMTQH

ALDH1A1 [2] = molecular target: T2, ALDH1A1; details: for Mode of inhibition of ALDH1A1 versus varied NAD+: 1 mM propionaldehyde
ALDH2 [3] = molecular target: T5, ALDH2 (Homo sapiens, UniProt P05091); details: 1 mM propionaldehyde
T5 sequence (P05091 18-517): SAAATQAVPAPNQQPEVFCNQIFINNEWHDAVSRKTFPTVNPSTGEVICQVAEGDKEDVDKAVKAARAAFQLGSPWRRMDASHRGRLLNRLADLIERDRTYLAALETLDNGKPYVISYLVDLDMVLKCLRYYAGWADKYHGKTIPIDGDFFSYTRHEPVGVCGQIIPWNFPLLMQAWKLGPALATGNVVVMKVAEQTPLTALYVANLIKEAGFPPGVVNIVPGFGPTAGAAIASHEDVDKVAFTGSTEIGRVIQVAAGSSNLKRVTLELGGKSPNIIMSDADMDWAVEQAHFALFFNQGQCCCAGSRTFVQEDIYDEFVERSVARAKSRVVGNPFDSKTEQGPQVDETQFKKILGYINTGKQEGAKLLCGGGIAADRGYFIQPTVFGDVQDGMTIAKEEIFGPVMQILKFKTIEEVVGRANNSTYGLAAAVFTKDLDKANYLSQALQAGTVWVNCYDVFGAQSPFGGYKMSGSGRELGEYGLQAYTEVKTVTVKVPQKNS

ALDH1A2 = molecular target: T6, ALDH1A2 (Homo sapiens, UniProt O94788); details: read-out: IC50 ALDH1A2; 100 μM propionaldehyde, 200 μM NAD+, 1% DMSO, pH 7.5, 25 °C
T6 sequence (O94788 1-518): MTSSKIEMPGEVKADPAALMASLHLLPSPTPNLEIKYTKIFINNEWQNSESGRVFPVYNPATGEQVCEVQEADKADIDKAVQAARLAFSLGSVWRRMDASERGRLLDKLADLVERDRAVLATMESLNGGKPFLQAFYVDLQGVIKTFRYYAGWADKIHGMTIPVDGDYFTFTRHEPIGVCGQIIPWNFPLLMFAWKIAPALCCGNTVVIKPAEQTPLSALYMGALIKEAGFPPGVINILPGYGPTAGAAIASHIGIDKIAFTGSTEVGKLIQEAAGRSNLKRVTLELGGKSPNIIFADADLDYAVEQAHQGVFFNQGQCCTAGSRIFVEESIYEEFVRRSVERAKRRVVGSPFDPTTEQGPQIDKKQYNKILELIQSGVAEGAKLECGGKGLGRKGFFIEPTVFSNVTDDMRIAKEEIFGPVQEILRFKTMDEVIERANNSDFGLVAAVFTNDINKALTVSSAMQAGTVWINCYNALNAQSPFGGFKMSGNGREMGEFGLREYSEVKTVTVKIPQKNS

ALDH2 [4] = molecular target: T5, ALDH2; test: ALDH2 dehydrogenase activity, NADH formation at 340 nm; assay type: biochemical; details: for Emax: read-out: Max inhibition ALDH2
ALDH1L1 (rat) = molecular target: T7, ALDH1L1 (rat) (Rattus norvegicus, UniProt P28037); test: ALDH1L1 dehydrogenase activity, NADPH formation at 340 nm; assay type: biochemical; details: read-out: IC50 ALDH1L1 (rat); 4 mM propionaldehyde, 500 μM NADP+
T7 sequence (P28037 1-902): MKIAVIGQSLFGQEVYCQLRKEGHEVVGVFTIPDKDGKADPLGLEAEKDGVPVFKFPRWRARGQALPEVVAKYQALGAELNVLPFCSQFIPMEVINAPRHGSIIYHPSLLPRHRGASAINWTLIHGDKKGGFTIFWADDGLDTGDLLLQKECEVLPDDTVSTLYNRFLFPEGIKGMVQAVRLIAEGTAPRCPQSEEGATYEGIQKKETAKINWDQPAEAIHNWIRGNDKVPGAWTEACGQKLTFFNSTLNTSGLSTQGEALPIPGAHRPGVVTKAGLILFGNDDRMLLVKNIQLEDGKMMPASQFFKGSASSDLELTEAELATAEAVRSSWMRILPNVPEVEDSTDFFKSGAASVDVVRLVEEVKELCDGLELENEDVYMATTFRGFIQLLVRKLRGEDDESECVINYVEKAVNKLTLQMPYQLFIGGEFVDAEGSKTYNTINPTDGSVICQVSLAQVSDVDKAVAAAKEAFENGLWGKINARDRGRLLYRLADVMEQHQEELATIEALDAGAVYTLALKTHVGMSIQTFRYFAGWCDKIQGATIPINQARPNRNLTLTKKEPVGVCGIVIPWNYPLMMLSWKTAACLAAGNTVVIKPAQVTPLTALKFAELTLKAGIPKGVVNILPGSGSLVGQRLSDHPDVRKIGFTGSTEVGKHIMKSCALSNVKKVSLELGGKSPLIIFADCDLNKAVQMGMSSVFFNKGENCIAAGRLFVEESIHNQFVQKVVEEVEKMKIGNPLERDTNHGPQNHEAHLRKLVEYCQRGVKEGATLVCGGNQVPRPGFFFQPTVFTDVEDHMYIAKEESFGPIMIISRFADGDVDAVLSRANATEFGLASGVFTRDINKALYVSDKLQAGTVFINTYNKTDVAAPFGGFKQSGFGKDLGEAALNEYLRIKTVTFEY

ALDH2 [5] = molecular target: T5, ALDH2; details: prior work; cited from earlier work

Structure (SMILES) | IC50 (ALDH3A1) [µM] | IC50 (ALDH1A1 [1]) [µM] | Mode of inhibition of ALDH2 versus varied NAD+ (ALDH2 [3]) | IC50 (ALDH1L1 (rat)) [µM] | further results
CCN(CC)c1ccc2c(C)cc(=O)oc2c1 [Compound 32] | > 100 |  |  |  | IC50 (ALDH1A3): > 100 µM; Fold selective for ALDH1A1 versus ALDH1A2 (ALDH1A1 [1]): 10 fold; inhibition at 10 µM (ALDH1A1 [1]): ~85%; IC50 (ALDH1B1): > 100 µM; Mode of inhibition of ALDH1A1 versus varied acetaldehyde (ALDH1A1 [2]; 1 mM NAD+, varied acetaldehyde): noncompetitive; Mode of inhibition of ALDH1A1 versus varied NAD+ (ALDH1A1 [2]): noncompetitive
C/C(=N\O)c1cc2cc(Br)ccc2oc1=O [Compound 36] | > 100 | > 100 | competitively |  | IC50 (ALDH1B1): > 100 µM; IC50 (ALDH1A2): > 100 µM
Cc1oc2cc3oc(=O)c4ccccc4c3cc2c1C [Compound 9] | > 100 | > 100 |  |  | Emax (ALDH2 [4]): 50 to 60%
CCCc1c(C)c2cc3c(C)coc3cc2oc1=O [Compound 1] | > 100 |  |  | > 100 | 
Cc1oc2cc3oc(=O)c(CCC(=O)N4CCCCC4)c(C)c3cc2c1C [Compound 15] | > 100 |  | competitive |  | inhibition at 10 µM (ALDH1A1 [1]): > 90%; Mode of inhibition of ALDH1A1 versus varied NAD+ (ALDH1A1 [2]): uncompetitive; inhibition at 10 µM (ALDH2 [4]; read-out: Inhibition of ALDH2 at 10 μM): > 90%
Cc1cc(=O)oc2cc(OCC#N)ccc12 [Compound 30] |  |  | noncompetitive (mixed-type) |  | Mode of inhibition of ALDH1A1 versus varied NAD+ (ALDH1A1 [2]): noncompetitive
COC(=O)C(C)Oc1ccc2c(C)cc(=O)oc2c1 (centres unmarked) [Compound 4] | > 100 | > 100 | competitive | > 100 | IC50 (ALDH1A3): > 100 µM; IC50 (ALDH1B1): > 100 µM; IC50 (ALDH1A2): > 100 µM
Cc1oc2cc3oc(=O)c(C)c(C)c3cc2c1C [Compound 3] | > 100 | > 100 | competitive | > 100 | Mode of inhibition of ALDH2 with respect to varied propionaldehyde (ALDH2 [5]): non-competitive (mixed-type)
CCCc1c(C)c2cc3c(C)c(C)oc3cc2oc1=O [Compound 2] | > 100 |  | competitive | > 100 | 
O=c1c(-c2ccc(O)cc2)coc2cc(O[C@@H]3O[C@H](CO)[C@@H](O)[C@H](O)[C@H]3O)ccc12 [Daidzin, daidzin, reference compound] | > 100 |  |  | > 100 | 
CCCc1cc(=O)oc2cc3oc(C)c(C)c3cc12 [Compound 7] | > 100 | > 100 |  |  | 
Cc1oc2cc3oc(=O)c4c(c3cc2c1C)CCCC4 [Compound 10] | > 100 |  |  |  | IC50 (ALDH1A3): > 100 µM
Cc1c(Cc2ccccc2)c(=O)oc2cc(OS(C)(=O)=O)ccc12 [Compound 34] | > 100 |  |  |  | 
Cc1oc2cc3oc(=O)c4c(c3cc2c1C)CCC4 [Compound 11] | > 100 |  |  |  | 
Cc1c(C)c2c(cc(C)c3c(C)coc32)oc1=O [Compound 23] | > 100 | > 100 |  |  | Emax (ALDH2 [4]): 50 to 60%

Source: paper PMC5765548 (Journal of medicinal chemistry, 2017)
